According to paper doi:10.1101/2025.03.31.646301v1, “Discovery of Tankyrase scaffolding inhibitor specifically targeting the ARC4 peptide binding domain” (biorxiv, 2025):
Read-outs that look alike come from different tables or passages of the source.

How the values were obtained:
[1] = molecular target: T1, TNKS2 ARC4 (Homo sapiens, UniProt Q9H2K2); assay: biochemical; set-up: FRET competition: inhibition of CFP-ARC domain binding to YFP-REAGDGEE peptide
T1 construct: ankyrin repeat cluster 4 domain; FRET: 6xHis-mCerulean (CFP) fusion; DSF, NMR, crystal: MBP and His tag cleaved by TEV, residues 487-649 printed for crystal; E. coli BL21(DE3)
T1 sequence (Q9H2K2 487-649): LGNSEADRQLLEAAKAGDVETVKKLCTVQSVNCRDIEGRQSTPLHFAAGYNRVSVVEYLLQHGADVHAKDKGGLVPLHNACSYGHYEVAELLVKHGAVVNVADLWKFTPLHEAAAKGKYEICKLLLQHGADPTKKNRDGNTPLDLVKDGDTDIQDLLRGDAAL
Description: The FRET assay for discovery of chemical probes targeting ARC and SAM domains of tankyrases was developed in a previous study.[52] The high-throughput screening of the EU-OPENSCREEN Pilot and Commercials Diversity libraries was performed at the Norwegian Centre for Molecular Biosciences and Medicine (NCMBM, formerly NCMM). For the primary screen, assay-ready plates containing library compound sufficient to reach a screening concentration of 30 µM were prepared on black shallow-well 384-microwell plates (Greiner bio-one small volume, high base, non-binding microplate black, 784900 or Fisherbrand™ 384-Well ShallowWell Polypropylene Microplates, 12-566-617, Fisher Scientific) using 30 nL of 10 mM DMSO compound stocks dispensed with an Echo 550 [compound left out] handler (Labcyte). Each screening plate also contained DMSO controls at equivalent volumes to compounds for positive, negative, and assay buffer blank controls, 16 wells per control type. Stock solutions of CFP-TNKS2 ARC4 and YFP-REAGDGEE or CFP-SAM(E897K) and YFP-SAM(Y920A) were combined and diluted in assay buffer (10 mM BTP pH 7, 3% weight/volume PEG 20000, 0.01% volume/volume Triton, 0.5 mM TCEP) to final concentrations of 100 nM and 200 nM or 150 and 300 nM, respectively. The positive control was prepared by addition of guanidine hydrochloride to the above assay buffer to a final concentration of 1M. A volume of 10 µL of these solutions was added to each well of the assay-ready plates using a BioTek MultiFlo FX dispenser (Agilent) equipped with 5 uL dispensing cassettes for the peristaltic pumps (screening solution and control) and a syringe pump (assay buffer blank). After [compound left out] handling, plates were incubated at RT for 30 minutes before reading fluorescence using a BioTek Synergy Neo2 plate reader (Agilent) with Gen5 software (version 3.02) at four wavelength combinations – 410/477, 410/527, 430/477, 430/527 – each with an excitation bandwidth of 20 nm and an emission bandwidth of 10 nm; a gain setting of 135; a “Normal” read speed with 10 msec delay after plate movement, 50 measurements per data point, low lamp energy, and a “Standard” dynamic range (0 to 99,999); and a read height of 4.5 mm. A SAR investigation was conducted with purchased and synthesized analogues of 1 through FRET-based potency measurements and DSF assay with TNKS2 ARC4 (Table 2, Table S2). All the compounds commercially acquired underwent quality control. […] Changes to the length of the aliphatic chain at R[3] greatly impacts both potency and protein stabilization. […] The diethylamino-based substituent at R[3] […] Compounds 25 and 26 further indicate that the presence of tertiary amine at R[3] is not necessary to achieve binding.

[2] = molecular target: T1, TNKS2 ARC4; set-up: DSF thermal shift of TNKS2 ARC4, stabilization over DMSO control; conditions: binder
Description: Given the notable stabilization of the pyrrolone-based compounds from the Commercials Diversity collection, we decided to focus on their common scaffold for compound optimization. Pyrrolone is indeed a versatile moiety that is largely employed for the design of compounds with a variety of biological effects.[55] The nine primary hits were acquired from commercial suppliers, they underwent quality control, additional DSF validation and determination of potency through FRET-based IC50 measurements (Table 1). All the tested compounds include a benzodioxane moiety (R[1]), a [compound left out] group with substitutions in the para position (R[2]), and an R[3] group with an aliphatic character and a tertiary amine. […] In addition, all molecules, except for 7, have IC50 values below 100 µM. Among the nine molecules, 1 performed the best in terms of stabilization of TNKS2 ARC4 and potency. […] In the same position, the presence of a hydrophobic methyl group (3, 4), other halogen substituents (5) and alkoxy groups (6–9) is also tolerated, even if not optimal. […] A SAR investigation was conducted with purchased and synthesized analogues of 1 through FRET-based potency measurements and DSF assay with TNKS2 ARC4 (Table 2, Table S2). All the compounds commercially acquired underwent quality control. […] Changes to the length of the aliphatic chain at R[3] greatly impacts both potency and protein stabilization. […] The diethylamino-based substituent at R[3] […] Compounds 25 and 26 further indicate that the presence of tertiary amine at R[3] is not necessary to achieve binding. […] 5 Figure S2. DSF assay results for validation of primary hits identified in the EU-OPENSCREEN Commercials Diversity Library. (A) and (B) show DSF assay validation measurements of TNKS2 ARC4 with primary hits from the Commercial Diversity Library. Compounds are tested at 100 μM. They are named after their EU-OPENSCREEN identity codes and the identities are available for consultation on ECBD. 1,2 (A) and (B) show results from two independent experiments. For each experiment, each compound was tested with a single measurement, while controls (TNKS2 ARC4 with 100 μM optimized peptide, TNKS2 ARC4 with 100 μM DMSO) are studied in at least four replicates and errors are shown. Moreover, stabilization over the control (TNKS2 ARC4 with DMSO) is indicated (ΔTm °C). […] It was not possible to measure the melting curve of TNKS2 ARC4 in presence of EOS21552, EOS54043, EOS54043.

SMILES	IC50 ([1]; inhibitor) [µM]	ΔTm ± SD (°C) [2] [°C]	IC50 [1] [µM]
O=C(C1=C(O)C(=O)N(CCc2ccccc2)C1c1ccccc1)c1ccc2c(c1)OCCO2 (centres unmarked) [compound 41, 41]	65	0.91 ± 0.31	–
Cc1ccccc1COc1ccc(C(=O)C2=C(O)C(=O)N(CCCN(C)C)C2c2cccc(O)c2)cc1 (centres unmarked) [compound 28, 28]	> 1000	-0.20 ± 0.22	–
O=C(C1=C(O)C(=O)N(Cc2ccncc2)C1c1ccncc1)c1ccc2c(c1)OCCO2 (centres unmarked) [compound 44, 44]	–	0.21 ± 0.26	> 1000
Cc1cc(C(=O)C2=C(O)C(=O)N(CCCN(C)C)C2c2ccc(O)cc2)ccc1OC(C)C (centres unmarked) [compound 34, 34]	–	-0.08 ± 0.41	> 1000
O=C(C1=C(O)C(=O)N(CCCN2CCOCC2)C1c1ccc(F)cc1)c1ccc2c(c1)OCCO2 (centres unmarked) [compound 43, 43]	–	1.61 ± 0.37	114
COc1cc(C2C(C(=O)c3ccc4c(c3)OCCO4)=C(O)C(=O)N2CCCN2CCOCC2)ccc1O (centres unmarked) [compound 45, 45]	78	2.32 ± 0.33	–
N=C(N)NCCCN1C(=O)C(O)=C(C(=O)c2ccc3c(c2)OCCO3)C1c1ccccc1 (centres unmarked) [S3]	–	1.20 ± 0.19	133
CN(C)CCCN1C(=O)C(O)=C(C(=O)c2ccc3c(c2)oc(=O)n3C)C1c1ccccc1 (centres unmarked) [compound 27, 27]	> 1000	-0.03 ± 0.11	–
COc1ccc(C(=O)C2=C(O)C(=O)N(CCCN3CCOCC3)C2c2ccccc2)cc1OC (centres unmarked) [compound 29, 29]	–	0.14 ± 0.25	> 1000
CCN(CC)CCCN1C(=O)C(O)=C(C(=O)c2ccc(OC)cc2)C1c1ccccc1 (centres unmarked) [compound 31, 31]	–	1.46 ± 0.52	136
O=C(C1=C(O)C(=O)N(CCCN2CCNCC2)C1c1cccc(O)c1)c1ccc2c(c1)OCCO2 (centres unmarked) [S2]	–	0.80 ± 0.16	302
COCCCN1C(=O)C(O)=C(C(=O)c2ccc3c(c2)OCCO3)C1c1ccccc1 (centres unmarked) [compound 40, 40]	360	0.47 ± 0.31	–
CCN(CC)CCN1C(=O)C(O)=C(C(=O)c2ccc3c(c2)OCCO3)C1c1ccccc1 (centres unmarked) [compound 39, 39]	255	1.05 ± 0.36	–
O=C(C1=C(O)C(=O)N(CCCN2CCOCC2)C1c1ccccc1)c1ccc2c(c1)OCCO2 (centres unmarked) [compound 42, 42]	–	2.26 ± 0.34	101
Cc1ccc(C2C(C(=O)c3ccc4c(c3)OCCO4)=C(O)C(=O)N2Cc2ccccc2)cc1 (centres unmarked) [compound 37, 37]	–	0.51 ± 0.31	71
COc1cccc(C(=O)C2=C(O)C(=O)N(CCCN3CCOCC3)C2c2ccccc2)c1 (centres unmarked) [compound 32, 32]	–	0.23 ± 0.25	> 1000
COCCN1C(=O)C(O)=C(C(=O)c2ccc3c(c2)OCCO3)C1c1cccc(O)c1 (centres unmarked) [compound 35, 35]	–	0.82 ± 0.38	305
Cc1ccc(C2C(C(=O)c3ccc4c(c3)OCCO4)=C(O)C(=O)N2CCN(C)C)cc1 (centres unmarked) [compound 38, 38]	493	0.67 ± 0.28	–
COc1ccc(C(=O)C2=C(O)C(=O)N(CCCN3CCOCC3)C2c2ccc(C)cc2)cc1OC (centres unmarked) [compound 30, 30]	–	0.12 ± 0.25	> 1000
O=C(C1=C(O)C(=O)N(Cc2ccccc2)C1c1cccc(O)c1)c1ccc2c(c1)OCCO2 (centres unmarked) [compound 36, 36]	–	0.45 ± 0.25	23
COc1cccc(C(=O)C2=C(O)C(=O)N(CCCN3CCOCC3)C2c2ccc(C)cc2)c1 (centres unmarked) [compound 33, 33]	–	0.36 ± 0.33	> 1000
N=C(N)NCCCN1C(=O)C(O)=C(C(=O)c2ccc3c(c2)OCCO3)C1c1cccc(O)c1 (centres unmarked) [S5]	–	1.31 ± 0.17	121
